Source: patent US7807439B2, “Staphylococcus aureus-specific detection media and identifying and/or counting method using same” (Biomerieux S.A., priority 2001, dated 2010)

What was measured:
Assay in all cases: Experiment 1: chromogenic α-glucosidase substrates in gelled medium, colony coloration
Conditions in all cases: substrate 100 mg/l
S. aureus 276 = type: cell-based, Staphylococcus aureus; parameters: key to I (intensity of coloration): 0 corresponds to a lack of activity; 0.1 corresponds to the presence of a trace of coloration; 0.5 corresponds to the presence of a very pale coloration; 1 corresponds to the presence of a clear coloration of weak intensity; 1.5 corresponds to the presence of a coloration which is intermediate between colorations 1 and 2; 2 corresponds to the presence of a true coloration of medium intensity; 2.5 corresponds to the presence of a coloration which is intermediate between colorations 2 and 3; 3 corresponds to the presence of an intense coloration; 3.5 corresponds to the presence of a coloration which is intermediate between colorations 3 and 4; 4 corresponds to the presence of a very intense coloration
Procedure: (§1) The α-glucosidase substrates are solubilized in dimethyl sulfoxide at a concentration of 200 g/l. A sufficient volume to obtain a final concentration of substrate of 100 mg/l is added to the four molten media. Microorganisms derived from the bioMérieux internal collection were seeded onto each one of the media, on their own as three dials, using a suspension at 0.5 MacFarland. However, results obtained with microorganisms derived from collections available to the public, ATCC or NCTC for example, would give identical results. The dishes were incubated at 37° C. for 48 hours. The colonies were examined visually after an incubation time of 24 and 48 hours. The coloration and also the intensity of this coloration were noted.
(§2) In table 2 below, as in the tables which will follow, C represents the coloration of the colonies after incubation, I represents the intensity of this coloration, the symbol “−” is synonymous with a lack of colour or intensity, and, finally, TI defines the incubation time. It should be noted that the intensity of the coloration is an arbitrary scale, but which is common to all the biological samples and all the media tested. This scale is valid for this experiment and also for all the experiments which will follow. It can be defined in the following way: • 0 corresponds to a lack of activity, • 0.1 corresponds to the presence of a trace of coloration, • 0.5 corresponds to the presence of a very pale coloration, • 1 corresponds to the presence of a clear coloration of weak intensity, • 1.5 corresponds to the presence of a coloration which is intermediate between colorations 1 and 2, • 2 corresponds to the presence of a true coloration of medium intensity, • 2.5 corresponds to the presence of a coloration which is intermediate between colorations 2 and 3, • 3 corresponds to the presence of an intense coloration • 3.5 corresponds to the presence of a coloration which is intermediate between colorations 3 and 4, • 4 corresponds to the presence of a very intense coloration.

S. aureus 070 = type: cell-based, Staphylococcus aureus; parameters: key to I (intensity of coloration): 0 corresponds to a lack of activity; 0.1 corresponds to the presence of a trace of coloration; 0.5 corresponds to the presence of a very pale coloration; 1 corresponds to the presence of a clear coloration of weak intensity; 1.5 corresponds to the presence of a coloration which is intermediate between colorations 1 and 2; 2 corresponds to the presence of a true coloration of medium intensity; 2.5 corresponds to the presence of a coloration which is intermediate between colorations 2 and 3; 3 corresponds to the presence of an intense coloration; 3.5 corresponds to the presence of a coloration which is intermediate between colorations 3 and 4; 4 corresponds to the presence of a very intense coloration
Procedure: as §1, §2

S. aureus 004 = type: cell-based, Staphylococcus aureus; parameters: key to I (intensity of coloration): 0 corresponds to a lack of activity; 0.1 corresponds to the presence of a trace of coloration; 0.5 corresponds to the presence of a very pale coloration; 1 corresponds to the presence of a clear coloration of weak intensity; 1.5 corresponds to the presence of a coloration which is intermediate between colorations 1 and 2; 2 corresponds to the presence of a true coloration of medium intensity; 2.5 corresponds to the presence of a coloration which is intermediate between colorations 2 and 3; 3 corresponds to the presence of an intense coloration; 3.5 corresponds to the presence of a coloration which is intermediate between colorations 3 and 4; 4 corresponds to the presence of a very intense coloration
Procedure: as §1, §2

S. epidermidis 009 = type: cell-based, Staphylococcus epidermidis; parameters: key to I (intensity of coloration): 0 corresponds to a lack of activity; 0.1 corresponds to the presence of a trace of coloration; 0.5 corresponds to the presence of a very pale coloration; 1 corresponds to the presence of a clear coloration of weak intensity; 1.5 corresponds to the presence of a coloration which is intermediate between colorations 1 and 2; 2 corresponds to the presence of a true coloration of medium intensity; 2.5 corresponds to the presence of a coloration which is intermediate between colorations 2 and 3; 3 corresponds to the presence of an intense coloration; 3.5 corresponds to the presence of a coloration which is intermediate between colorations 3 and 4; 4 corresponds to the presence of a very intense coloration; key to C (coloration of the colonies): —: the symbol “−” is synonymous with a lack of colour or intensity
Procedure: as §1, §2

S. intermedius 075 = type: cell-based, Staphylococcus intermedius; parameters: key to I (intensity of coloration): 0 corresponds to a lack of activity; 0.1 corresponds to the presence of a trace of coloration; 0.5 corresponds to the presence of a very pale coloration; 1 corresponds to the presence of a clear coloration of weak intensity; 1.5 corresponds to the presence of a coloration which is intermediate between colorations 1 and 2; 2 corresponds to the presence of a true coloration of medium intensity; 2.5 corresponds to the presence of a coloration which is intermediate between colorations 2 and 3; 3 corresponds to the presence of an intense coloration; 3.5 corresponds to the presence of a coloration which is intermediate between colorations 3 and 4; 4 corresponds to the presence of a very intense coloration; key to C (coloration of the colonies): —: the symbol “−” is synonymous with a lack of colour or intensity
Procedure: as §1, §2

S. saprophyticus 064 = type: cell-based, Staphylococcus saprophyticus; parameters: key to I (intensity of coloration): 0 corresponds to a lack of activity; 0.1 corresponds to the presence of a trace of coloration; 0.5 corresponds to the presence of a very pale coloration; 1 corresponds to the presence of a clear coloration of weak intensity; 1.5 corresponds to the presence of a coloration which is intermediate between colorations 1 and 2; 2 corresponds to the presence of a true coloration of medium intensity; 2.5 corresponds to the presence of a coloration which is intermediate between colorations 2 and 3; 3 corresponds to the presence of an intense coloration; 3.5 corresponds to the presence of a coloration which is intermediate between colorations 3 and 4; 4 corresponds to the presence of a very intense coloration; key to C (coloration of the colonies): —: the symbol “−” is synonymous with a lack of colour or intensity
Procedure: as §1, §2

S. xylosus 008 = type: cell-based, Staphylococcus xylosus; parameters: key to I (intensity of coloration): 0 corresponds to a lack of activity; 0.1 corresponds to the presence of a trace of coloration; 0.5 corresponds to the presence of a very pale coloration; 1 corresponds to the presence of a clear coloration of weak intensity; 1.5 corresponds to the presence of a coloration which is intermediate between colorations 1 and 2; 2 corresponds to the presence of a true coloration of medium intensity; 2.5 corresponds to the presence of a coloration which is intermediate between colorations 2 and 3; 3 corresponds to the presence of an intense coloration; 3.5 corresponds to the presence of a coloration which is intermediate between colorations 3 and 4; 4 corresponds to the presence of a very intense coloration; key to C (coloration of the colonies): —: the symbol “−” is synonymous with a lack of colour or intensity
Procedure: as §1, §2

Molecule | C (coloration of the colonies) (S. aureus 276; TI 24 h) | I (intensity of coloration) (S. aureus 276; TI 24 h) | C (coloration of the colonies) (S. aureus 276; TI 48 h) | I (intensity of coloration) (S. aureus 276; TI 48 h) | C (coloration of the colonies) (S. aureus 070; TI 24 h) | I (intensity of coloration) (S. aureus 070; TI 24 h) | C (coloration of the colonies) (S. aureus 070; TI 48 h) | I (intensity of coloration) (S. aureus 070; TI 48 h) | C (coloration of the colonies) (S. aureus 004; TI 24 h) | I (intensity of coloration) (S. aureus 004; TI 24 h) | C (coloration of the colonies) (S. aureus 004; TI 48 h) | I (intensity of coloration) (S. aureus 004; TI 48 h) | C (coloration of the colonies) (S. epidermidis 009; TI 24 h) | I (intensity of coloration) (S. epidermidis 009; TI 24 h) | C (coloration of the colonies) (S. epidermidis 009; TI 48 h) | I (intensity of coloration) (S. epidermidis 009; TI 48 h) | C (coloration of the colonies) (S. intermedius 075; TI 24 h) | I (intensity of coloration) (S. intermedius 075; TI 24 h) | C (coloration of the colonies) (S. intermedius 075; TI 48 h) | I (intensity of coloration) (S. intermedius 075; TI 48 h) | other results
5-bromo-4-chloro-3-indoxyl-α-D-glucoside [X-a-GLU] | turquoise | 2 | turquoise | 2 | turquoise | 1.5 | turquoise | 1.5 | turquoise | 1 | turquoise | 2 | — | 0 | turquoise | 1 | turquoise | 0.5 | turquoise | 2 | C (coloration of the colonies) (S. saprophyticus 064; TI 24 h): —; I (intensity of coloration) (S. saprophyticus 064; TI 24 h): 0; C (coloration of the colonies) (S. saprophyticus 064; TI 48 h): turquoise; I (intensity of coloration) (S. saprophyticus 064; TI 48 h): 0.5; C (coloration of the colonies) (S. xylosus 008; TI 24 h): turquoise; I (intensity of coloration) (S. xylosus 008; TI 24 h): 0.5; C (coloration of the colonies) (S. xylosus 008; TI 48 h): turquoise; I (intensity of coloration) (S. xylosus 008; TI 48 h): 1.5
OC[C@H]1O[C@H](Oc2c[nH]c3cc(Cl)ccc23)[C@H](O)[C@@H](O)[C@@H]1O [Pink-a-GLU, 6-Chloro-3-indoxyl-α-D-glucoside] | pink | 1.5 | pink | 1.5 | pink | 2 | pink | 2 | pink | 1 | pink | 1 | — | 0 | — | 0 | — | 0 | pink | 0.5 | C (coloration of the colonies) (S. saprophyticus 064; TI 24 h): —; I (intensity of coloration) (S. saprophyticus 064; TI 24 h): 0; C (coloration of the colonies) (S. saprophyticus 064; TI 48 h): —; I (intensity of coloration) (S. saprophyticus 064; TI 48 h): 0; C (coloration of the colonies) (S. xylosus 008; TI 24 h): —; I (intensity of coloration) (S. xylosus 008; TI 24 h): 0; C (coloration of the colonies) (S. xylosus 008; TI 48 h): pink; I (intensity of coloration) (S. xylosus 008; TI 48 h): 0.5
OC[C@H]1O[C@H](Oc2c[nH]c3cc(Br)ccc23)[C@H](O)[C@@H](O)[C@@H]1O [Red “A” a-GLU, 6-Bromo-3-indoxyl-α-D-glucoside] | pink | 2 | pink | 2 | pink | 2 | pink | 2.5 | pink | 0.5 | pink | 2.5 | — | 0 | — | 0 | — | 0 | pink | 1.5 | C (coloration of the colonies) (S. saprophyticus 064; TI 24 h): —; I (intensity of coloration) (S. saprophyticus 064; TI 24 h): 0; C (coloration of the colonies) (S. saprophyticus 064; TI 48 h): —; I (intensity of coloration) (S. saprophyticus 064; TI 48 h): 0; C (coloration of the colonies) (S. xylosus 008; TI 24 h): —; I (intensity of coloration) (S. xylosus 008; TI 24 h): 0; C (coloration of the colonies) (S. xylosus 008; TI 48 h): pink; I (intensity of coloration) (S. xylosus 008; TI 48 h): 2.5
